# Measured values reported in US10780090B2, “Heteroaryl compounds useful as inhibitors of SUMO activating enzyme” (Millennium Pharmaceuticals, Inc., priority 2014, dated 2020).
# Molecular target: recombinant human SAE enzyme (Homo sapiens (Human), UniProt Q9UBT2)
# Experiment: SAE HTRF enzyme assay
# Assay type: biochemical
# Conditions: for Percent Inhibition: Concentration 0.111 μM; for IC50: class symbols A/B/C
# Method in brief: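 Human SAE (0.11 nM) with 0.5 μM ATP, 0.125 μM Sumo-Flag and 0.01 μM Ubc9-GST in HEPES pH 7.5, 5 mM MgCl2, 250 μM GSH; 105 min at 24 °C. Stopped with EDTA; HTRF read after 2 h with Eu-anti-Flag and APC-anti-GST. Percent inhibition or IC50 reported.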
# recombinant human SAE enzyme, sequence (Q9UBT2 whole entry): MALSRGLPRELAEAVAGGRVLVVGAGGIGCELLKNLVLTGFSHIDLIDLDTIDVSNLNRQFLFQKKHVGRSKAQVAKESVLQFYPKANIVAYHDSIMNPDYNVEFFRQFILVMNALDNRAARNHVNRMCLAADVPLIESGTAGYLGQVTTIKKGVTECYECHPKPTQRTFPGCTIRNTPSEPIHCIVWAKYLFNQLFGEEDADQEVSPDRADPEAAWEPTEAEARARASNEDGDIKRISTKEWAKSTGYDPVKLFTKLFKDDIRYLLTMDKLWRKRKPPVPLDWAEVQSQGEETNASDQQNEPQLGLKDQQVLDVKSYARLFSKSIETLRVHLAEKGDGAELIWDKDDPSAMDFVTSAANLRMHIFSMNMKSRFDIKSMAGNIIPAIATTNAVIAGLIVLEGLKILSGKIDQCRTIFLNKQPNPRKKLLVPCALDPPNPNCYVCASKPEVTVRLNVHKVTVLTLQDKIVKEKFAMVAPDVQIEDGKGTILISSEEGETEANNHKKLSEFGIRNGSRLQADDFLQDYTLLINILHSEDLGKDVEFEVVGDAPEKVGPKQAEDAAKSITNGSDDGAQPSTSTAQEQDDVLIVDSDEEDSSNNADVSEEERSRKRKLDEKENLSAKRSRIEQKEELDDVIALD
# recombinant human SAE enzyme, sequence (Q9UBE0 whole entry partner): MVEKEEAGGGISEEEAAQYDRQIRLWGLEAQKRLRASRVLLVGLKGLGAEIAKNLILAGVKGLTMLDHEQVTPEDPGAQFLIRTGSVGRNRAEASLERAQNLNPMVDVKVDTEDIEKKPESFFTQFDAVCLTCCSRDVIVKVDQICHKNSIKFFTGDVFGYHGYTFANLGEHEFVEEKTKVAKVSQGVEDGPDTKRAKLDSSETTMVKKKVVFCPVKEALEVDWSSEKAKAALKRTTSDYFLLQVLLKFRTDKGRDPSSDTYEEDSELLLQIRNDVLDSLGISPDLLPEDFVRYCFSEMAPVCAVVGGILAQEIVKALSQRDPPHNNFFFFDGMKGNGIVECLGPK
SMILES,Percent Inhibition,IC50 [µM]
"N[C@@H](c1cccc(Br)n1)c1cc(C(=O)c2cncnc2N[C@@H]2C[C@H](COS(N)(=O)=O)[C@@H](O)[C@H]2O)sc1Cl (single isomer, unassigned) [I-10b, [(1R,2R,3S,4R)-4-{[5-({4-[(R)-amino(6-bromopyridin-2-yl)methyl]-5-chloro-2-thienyl}carbonyl)pyrimidin-4-yl]amino}-2,3-dihydroxycyclopentyl]methyl sulfamate or [(1R,2R,3S,4R)-4-{[5-({4-[(S)-amino(6-bromopyridin-2-yl)methyl]-5-chloro-2-thienyl}carbonyl)pyrimidin-4-yl]amino}-2,3-dihydroxycyclopentyl]methyl sulfamate]",97,< 0.01
"Cc1sc(C(=O)c2cncnc2N[C@@H]2C[C@H](COS(N)(=O)=O)[C@@H](O)C2)cc1[C@H](O)c1cccc(Cl)c1 (single isomer, unassigned) [I-11a, [(1R,2S,4R)-4-{[5-({4-[(R)-(3-chlorophenyl)(hydroxy)methyl]-5-methyl-2-thienyl}carbonyl)pyrimidin-4-yl]amino}-2-hydroxycyclopentyl]methyl sulfamate or [(1R,2S,4R)-4-{[5-({4-[(S)-(3-chlorophenyl)(hydroxy)methyl]-5-methyl-2-thienyl}carbonyl)pyrimidin-4-yl]amino}-2-hydroxycyclopentyl]methyl sulfamate]",93,< 0.01
"Cc1sc(C(=O)c2cncnc2N[C@@H]2C[C@H](COS(N)(=O)=O)[C@@H](O)C2)cc1[C@H](O)c1cccc(Cl)c1 (single isomer, unassigned) [I-11b, [(1R,2S,4R)-4-{[5-({4-[(R)-(3-chlorophenyl)(hydroxy)methyl]-5-methyl-2-thienyl}carbonyl)pyrimidin-4-yl]amino}-2-hydroxycyclopentyl]methyl sulfamate or [(1R,2S,4R)-4-{[5-({4-[(S)-(3-chlorophenyl)(hydroxy)methyl]-5-methyl-2-thienyl}carbonyl)pyrimidin-4-yl]amino}-2-hydroxycyclopentyl]methyl sulfamate]",99,< 0.01
"C[C@](N)(c1cccc(Cl)c1)c1csc(C(=O)c2cncnc2N[C@@H]2C[C@H](COS(N)(=O)=O)[C@@H](O)C2)c1 (single isomer, unassigned) [I-12a, [(1R,2S,4R)-4-{[5-({4-[(1S)-1-amino-1-(3-chlorophenyl)ethyl]-2-thienyl}carbonyl)pyrimidin-4-yl]amino}-2-hydroxycyclopentyl]methyl sulfamate or [(1R,2S,4R)-4-{[5-({4-[(1R)-1-amino-1-(3-chlorophenyl)ethyl]-2-thienyl}carbonyl)pyrimidin-4-yl]amino}-2-hydroxycyclopentyl]methyl sulfamate]",84,0.01 to 0.1
"C[C@](N)(c1cccc(Cl)c1)c1csc(C(=O)c2cncnc2N[C@@H]2C[C@H](COS(N)(=O)=O)[C@@H](O)C2)c1 (single isomer, unassigned) [I-12b, [(1R,2S,4R)-4-{[5-({4-[(1S)-1-amino-1-(3-chlorophenyl)ethyl]-2-thienyl}carbonyl)pyrimidin-4-yl]amino}-2-hydroxycyclopentyl]methyl sulfamate or [(1R,2S,4R)-4-{[5-({4-[(1R)-1-amino-1-(3-chlorophenyl)ethyl]-2-thienyl}carbonyl)pyrimidin-4-yl]amino}-2-hydroxycyclopentyl]methyl sulfamate]",100,< 0.01
"N[C@@H](c1cccc(Cl)c1)c1cc(C(=O)c2cncnc2N[C@@H]2C[C@H](COS(N)(=O)=O)[C@@H](O)[C@H]2O)sc1Cl (single isomer, unassigned) [I-14a, [(1R,2R,3S,4R)-4-{[5-({4-[(S)-Amino(3-chlorophenyl)methyl]-5-chloro-2-thienyl)carbonyl)pyrimidin-4-yl]amino}-2,3-dihydroxycyclopentyl]methyl sulfamate or [(1R,2R,3S,4R)-4-{[5-({4-[(R)-Amino(3-chlorophenyl)methyl]-5-chloro-2-thienyl}carbonyl)pyrimidin-4-yl]amino}-2,3-dihydroxycyclopentyl]methyl sulfamate]",101,< 0.01
